These results are taken from PMC6222636, “Determination of Novel Highly Effective Necrostatin Nec-1s in Rat Plasma by High Performance Liquid Chromatography Hyphenated with Quadrupole-Time-of-Flight Mass Spectrometry” (Molecules : A Journal of Synthetic Chemistry and Natural …, 2018).

Values joined by “and” are separate entries in the source; they are usually repeats but may differ in a detail not shown here. Equal entries are not always repeated. Where two headings read alike, the source gives them in different places. Where only a bound is given, the exact number is not on record here.

Series [1] concerns the target receptor interacting protein 1 (RIP1). Conditions: cited from earlier work; for IC50: RIP1 inhibitor potency.
The test system of series [2] is abdominal aortic aneurisms (elastase perfusion). On the set-up: method as in PMID 28186202. Conditions: mice with aneurysm induced by elastase perfusion, cited from earlier work.
The test system of series [3] is indoleamine 2,3-dioxygenase (IDO). Set-up: method as in PMID 23190609. The note with it: cited from earlier work.
On the set-up of series [4]: method as in PMID 28946210. The note with it: rat plasma, cited from earlier work.
Series [5] can be described thus: Nec-1s plasma levels in rats by HPLC-Q-TOF after i.v. bolus. Format: in vivo, male Wistar rats. The note with it: for concentration at 50 min: male, Wistar, rat, plasma, iv, 0.37 mg/kg. As to the method: The developed and validated HPLC-Q-TOF method was applied for the determination of real plasma concentrations of Nec-1s in 5 male Wistar rats after i.v. administration of a bolus dose of Nec-1s (0.37 mg/kg). The samples taken from each subject were prepared and analyzed in triplicate. […] The measured data were consistent to each other with plasma concentrations in the range of 319.81–466.52 nM, and mean value of 377.26 nM. The differences in the found concentrations can be explained by different metabolism in the studied animals.
A total of 11 male Wistar rats (250–300 g body weight) were housed under standard conditions with a controlled light/dark cycle (12/12 h) and temperature (22 °C ± 2 °C), and fed a standard diet and tap water ad libitum. The anesthetized animals (natrium pentobarbital 60 mg/kg, i.p.) were randomized in two groups to receive either vehicle (C, n = 6) or Nec-1s (N, n = 5) and blood was collected from the abdominal aorta 50-min after drug application (a bolus dose; 0.37 mg/kg, i.v.; diluted in 20% v/v DMSO) into EDTA-containing syringes (S-Monovette, Starstedt, Germany). To obtain plasma, the blood was centrifuged at 4 °C for 15 min at 4000× g. The aliquots of plasma were stored at −80 °C until further procedure.
An aliquot of plasma was thawed at laboratory temperature. Afterwards, the rat plasma (180 µL) was mixed with the internal standard solution (20 µL, 1.25 µg/mL of prednisone in 50% (v/v) methanol). […] The precipitated sample was vortexed for 5 min (2400 rpm) and then centrifuged for 10 min (15000× g; 4 °C). After the centrifugation, 800 µL of supernatant was transferred into another tube and evaporated to dryness under a gentle stream of nitrogen at ambient temperature. The residuals were reconstituted with 100 µL of mobile phase (25:75 mixture of acetonitrile and water containing 0.1% formic acid) and an aliquot of the solution (5 µL) was used for the HPLC-DAD-Q-TOF analysis.
All of the analyses were carried out on the chromatographic apparatus consisting of LC Agilent Infinity System (Agilent Technologies, Santa Clara, CA, USA) equipped with a gradient pump (1290 Bin Pump VL), an automatic injector (1260 HiPals), and column thermostat (1290 TCC; set at 4 °C). The LC system was hyphenated with a photodiode array detector (Infinity 1290 DAD), and quadrupole time-of-flight (Q-TOF) mass spectrometer (Agilent 6520 Accurate-Mass Q-TOF LC/MS) equipped with the electrospray ionization (ESI) source operated in a positive ionization mode. A computer with a MassHunter software (version MassHunter Workstation B.05.01, Agilent Technologies) was used to control the apparatus as well as acquire and process the data. The Q-TOF mass spectrometer was operated under following parameters: drying gas temperature 360 °C, drying gas flow 12 L/min, nebulizing gas pressure 60 psi, capillary voltage 5500 V, fragmentor voltage 125 V, skimmer voltage 65 V, OctopoleRFPeak 550 V, and collision gas N2. […] In the processing the exact (theoretical) masses of their [M + H]^+ (278.0691 for Nec-1s; 359.1853 for prednisone), and [M + Na]^+ (300.0510 for Nec-1s; 381.1672 for prednisone) adducts were used. For the MS spectra obtained by the analysis of the stock solutions of Nec-1s and prednisone see Figure 4. The theoretical and experimentally found masses of the Nec-1s and prednisone adducts were in a very good mutual agreement so that Q-TOF was suitable for an unambiguous confirmation of the identity of the analyzed compounds in the samples. The EIC were extracted with m/z expansion of ±10 ppm. In case of DAD detector, the peak areas of the analyte and IS were evaluated at the wavelength of 280 nm.
The chromatographic separation of the Nec-1s was achieved by using RP-C18 chromatographic column–Zorbax Extend-C18, 2.1 × 50 mm, 1.8 µm obtained from Agilent Technologies. A gradient elution of mobile phases consisting of 0.1% formic acid in LC-MS water (A) and 0.1% formic acid in acetonitrile (B) was used. […]

Details of series [6]: method as in PMID 23190609. The note with it: cited from earlier work.
Details of series [7]: method as in PMID 23190609. Conditions: cited from earlier work. This is another data set of the same source.
Series [8] deals with receptor interacting protein 1 (RIP1). The series can be described thus: RIP1 inhibition (necrostatin potency). Format: biochemical. The note with it: Nec-1s vs Nec-1.
[9] abbreviates: individual rats N1-N5, 50 min after i.v. bolus dose 0.37 mg/kg, n = 3 analyses.

As to `CN1C(=O)C(Cc2c[nH]c3ccccc23)NC1=S` (centres unmarked) [Nec-1, 5-(indol-3-ylmethyl)(2-thio-3-methyl)hydantoin], in series [1], the IC50 was 494 nM. Besides, the “aortic diameter vs control” value in series [2] (p = 0.1) is “smaller but the difference was not statistically significant”. Also, in series [3], the “effect on IDO” value was “concomitant inhibition of indoleamine 2,3-dioxygenase (IDO)”. In addition, the “concentration level at 5 min after i.v. administration” value in series [4] (i.v., 5 min) was 1733 ng/mL. The “concentration level at 1 h after i.v. administration” value in series [4] (i.v., 1 h) is on record as 617 ng/mL. Further, the “concentration level at 8 h after i.v. administration” value in series [4] (i.v., 8 h) is under 100 ng/mL. The “concentration after 8 h, oral administration” value in series [4] (oral, after 8 h) is “undetectable”. In series [4] (oral), the “peak concentration after oral administration” value is 648 ng/mL and the “time of peak concentration after oral administration” value is reported as 1 h.
As to `O=C1NC(=S)NC1Cc1c[nH]c2ccccc12` (centres unmarked) [Nec-1i], the “capability to inhibit RIP1” value in series [1] was “lacking the capability to inhibit RIP1”. Besides, the “effect on IDO” value in series [3] is “found to be an IDO inhibitor”.
On to `CN1C(=O)NC(Cc2c[nH]c3c(Cl)cccc23)C1=O` (centres unmarked) [Nec-1s, 5-((7-chloro-1H-indol-3-yl)methyl)-3-methyl-2,4-imidazolidinedione], for which, in series [1], the IC50 was 210 nM. Also, the “Plasma Concentration (nM)” value in series [5] (setting [9]) was 327.43 nM and 398.08 nM and 319.81 nM and 466.52 nM. The “Plasma Concentration (ng/mL)” value in series [5] (setting [9]) was 90.93 ng/mL and 110.55 ng/mL and 88.81 ng/mL and 129.56 ng/mL. Also, the concentration at 50 min in series [5] (50 min after i.v. bolus dose 0.37 mg/kg, 5 male Wistar rats, read-out: plasma concentration, mean value of 5 rats) was 377 nM; in series [5] (50 min after i.v. bolus dose 0.37 mg/kg, 5 male Wistar rats, read-out: plasma concentrations, range over 5 rats), 320 to 467 nM; in series [5] (individual rats N1-N5, 50 min after i.v. bolus dose 0.37 mg/kg, n = 3 analyses, read-out: Plasma Concentration) it was 374 nM; in series [5] (individual rats N1-N5, 50 min after i.v. bolus dose 0.37 mg/kg, n = 3 analyses, read-out: Plasma Concentration (ng/mL)), 104 ng/mL. In series [2] (control 172.80%, p < 0.05), the aortic expansion was 64.12%. Further, the “effect on IDO” value in series [3] was “does not influence IDO”. In addition, the “in vivo and in vitro toxicity compared with Nec-1” value in series [6] is recorded as “reduced”. Also, the “metabolic stability in comparison to Nec-1” value in series [7] is listed as “metabolically more stable”. In series [8], the “inhibition activity relative to Nec-1” value was 2 times.
